Laboratory results taken from patent US20150313896A1, “METHOD FOR TREATING CELL PROLIFERATION DISORDERS” (Galderma Research & Development, priority 2013, published 2015).
Structures can show the parent of a compound that is named as a salt. Where two headings read alike, the source gives them in different places.

What was measured:
SKH1 mice [1] = assay: UVB-induced epidermal hyperplasia: EdU detection of proliferating keratinocytes; assay type: in vivo
Protocol: (§1) SKH1 mice were treated and exposed to UVB irradiation. The back skin of the mice was exposed to 120 mJ/cm^2 UVB using the Biospectra system equipped with UVB sunlamps with a maximum emission peak at 312 nm. Irradiations were performed under isoflurane gaseous anesthesia. Mice were treated with vehicle (PEG400/EtOH/PHY (30/20/50) p/p) or brimonidine tartrate at 0.2% or 2%, by weight, administrated by topical application (100 μl) on a 10 cm^2 area on the upper part of the back using a micropipette. The area is located on the upper part of the back to prevent the animals from liking themselves. Three applications were performed according to the following two treatment schedules:
(§2) (a) pre-treatment: one application 1 hour prior to UVB irradiation, followed by two more applications 23 hours apart;
(§3) (b) post-treatment: one application immediately following the UVB irradiation, followed by two more applications 23 hours apart.
(§4) A compound reference, i.e., an EGFR inhibitor at 4%, by weight, in EtOH/H2O (76/24) was also administrated according to the pre-treatment schedule.
One hour after the third topical treatment and one hour before euthanasia, mice received an intraperitoneal (i.p.) injection of 5-ethynyl-2′-deoxyuridine (EdU) at 100 mg/kg. After mouse euthanasia using cervical dislocation, the back skin was removed and immediately fixed in formol. […]
For EdU detection, two or three sections of 7 μm per animal were submitted to EdU staining. […] Nuclei were also stained with 4′,6-diamidino-2-phenylindole (DAPI) diluted at 5 mg/mL in Vectashield Hard Set Mounting medium for Fluorescence (ref: H-1400 Vector Laboratories). The number of keratinocytes stained with Alexa Fluor® 594 was counted from digital images (NanoZoomer C9600-12, Hamamatsu Photonics K.K) and the epidermis length of each section determined using an in house dedicated tool.
Data were analyzed using unpaired t test for validation of the UVB irradiation and one-way ANOVA with Dunnett's multiple comparison test for the analysis of the treatment effect (Prism 6; GraphPad Software Inc., San Diego, Calif., USA). […]

SKH1 mice [2] = assay: UVB-induced epidermal hyperplasia: epidermis thickness (H&E); assay type: in vivo; details: for Decrease of the epidermal thickness: post-treatment schedule (immediately after UVB, then twice 23 h apart)
Protocol: as §1, §2, §3, §4
One hour after the third topical treatment and one hour before euthanasia, mice received an intraperitoneal (i.p.) injection of 5-ethynyl-2′-deoxyuridine (EdU) at 100 mg/kg. After mouse euthanasia using cervical dislocation, the back skin was removed and immediately fixed in formol. The formol-fixed skin samples were embedded in paraffin and then submitted to immunohistological studies for epidermal thickness and EdU detection.
For epidermal thickness, two sections of 7 μm per animal were stained in hematoxylin and eosin (H&E) stain. Skin histology and the epidermis thickness were analyzed using image analysis (mScope 3.9, Aurora mScope) on scanned slide pictures (NanoZoomer C9600-12, Hamamatsu Photonics K.K).
Data were analyzed using unpaired t test for validation of the UVB irradiation and one-way ANOVA with Dunnett's multiple comparison test for the analysis of the treatment effect (Prism 6; GraphPad Software Inc., San Diego, Calif., USA). A p value of less than 0.05 was regarded as significant.

[3] = test system: Albino hairless SKH1-hr mice; details: for Skin Thickening: number of mice with observation / Skin Thickening: total number of observations: 40 weeks
Protocol: Albino hairless SKH1-hr mice (36/sex/group) were treated for 40 weeks with UVR and brimonidine gel or vehicle according to the design in table 11. […] Topical treatments were performed approximately one hour before UVR on Monday, Wednesday and Friday of each week and approximately one hour after UVR Tuesday and Thursday of each week.
*Monday, Wednesday and Friday of each week: exposure to UVR approximately one hour after test item application. Tuesday and Thursday of each week: exposure to UVR approximately one hour before test item application.
The UVR exposure was 600 RBU/week for all test groups in the table.

Brc1c(NC2=NCCN2)ccc2nccnc12 [brimonidine tartrate, (5-Bromo-quinoxalin-6-yl)-(4,5-dihydro-1H-imidazol-2-yl)-amine]
Reduction of the number of EdU positive cells (SKH1 mice [1]; 0.2% topical, post-treatment schedule): 25% | Reduction of the number of EdU positive cells (SKH1 mice [1]; 2% topical, post-treatment schedule): −64% | Reduction of the number of EdU positive cells (SKH1 mice [1]; 2% topical, pre-treatment schedule): −59% | Decrease of the epidermal thickness (SKH1 mice [2]; 0.2% (w/w) topical): −16% | Inhibition of UVB-induced acanthosis (epidermis thickness) (SKH1 mice [2]; 0.2% (w/w) topical, pre-treatment schedule): no effect | Decrease of the epidermal thickness (SKH1 mice [2]; 2% (w/w) topical): −32% | Inhibition of UVB-induced acanthosis (epidermis thickness) (SKH1 mice [2]; 2% (w/w) topical, pre-treatment schedule (1 h before UVB 120 mJ/cm^2, then twice 23 h apart)): −23% | UV-induced skin thickness, statistical effect ([3]; 0.18% (w/w) topical): did not statistically reduce | UV-induced skin thickness, statistical effect ([3]; 1% (w/w) topical): statistically reduced | UV-induced skin thickness, statistical effect ([3]; 2% (w/w) topical): statistically reduced | Skin Thickening: number of mice with observation ([3]; female mice (36 tested), 0.18% brimonidine tartrate gel topical, UVR 600 RBU/week): 32 | Skin Thickening: number of mice with observation ([3]; female mice (36 tested), 1% brimonidine tartrate gel topical, UVR 600 RBU/week): 25 | Skin Thickening: number of mice with observation ([3]; female mice (36 tested), 2% brimonidine tartrate gel topical, UVR 600 RBU/week): 23 | Skin Thickening: total number of observations ([3]; female mice, 0.18% brimonidine tartrate gel topical, UVR 600 RBU/week): 521 | Skin Thickening: total number of observations ([3]; female mice, 1% brimonidine tartrate gel topical, UVR 600 RBU/week): 374 | Skin Thickening: total number of observations ([3]; female mice, 2% brimonidine tartrate gel topical, UVR 600 RBU/week): 381 | Skin Thickening: number of mice with observation ([3]; male mice (36 tested), 0.18% brimonidine tartrate gel topical, UVR 600 RBU/week): 34 | Skin Thickening: number of mice with observation ([3]; male mice (36 tested), 1% brimonidine tartrate gel topical, UVR 600 RBU/week): 27 | Skin Thickening: number of mice with observation ([3]; male mice (36 tested), 2% brimonidine tartrate gel topical, UVR 600 RBU/week): 24 | Skin Thickening: total number of observations ([3]; male mice, 0.18% brimonidine tartrate gel topical, UVR 600 RBU/week): 514 | Skin Thickening: total number of observations ([3]; male mice, 1% brimonidine tartrate gel topical, UVR 600 RBU/week): 392 | Skin Thickening: total number of observations ([3]; male mice, 2% brimonidine tartrate gel topical, UVR 600 RBU/week): 367 | UV-induced skin thickening, effect in words ([3]; topical 0.18%, 1% and 2%, UVR 600 RBU/week): dose-dependent reduction
